From patent US9073874B2, “Cyclic N,N′-diarylthioureas and N,N′-diarylureas-androgen receptor antagonists, anticancer agent, method for preparation and use thereof” (priority 2010, dated 2015)

What was measured:
[1] = molecular target: A1 (h) (Homo sapiens, UniProt P30542); test: competitive radioligand binding assay, A1 (h) (antagonist radioligand)
[2] = molecular target: A3 (h) (Homo sapiens, UniProt P0DMS8); test: competitive radioligand binding assay, A3 (h) (agonist radioligand)
[3] = system: α1 (non-selective); test: competitive radioligand binding assay, α1 (non-selective (antagonist radioligand)); details: 10 μM
[4] = system: a2 (non-selective); test: competitive radioligand binding assay, a2 (non-selective) (antagonist radioligand); details: 10 μM
[5] = molecular target: β2 (h) (Homo sapiens, UniProt P07550); test: competitive radioligand binding assay, β2 (h) (agonist radioligand)
[6] = molecular target: CB1 (h) (Homo sapiens, UniProt P21554); test: competitive radioligand binding assay, CB1 (h) (agonist radioligand)
[7] = molecular target: CB2 (h) (Homo sapiens, UniProt P34972); test: competitive radioligand binding assay, CB2 (h) (agonist radioligand)
[8] = molecular target: CCK2 (CCKB) (h) (Homo sapiens, UniProt P32239); test: competitive radioligand binding assay, CCK2 (CCKB) (h) (agonist radioligand)
[9] = molecular target: ETB (h) (Homo sapiens, UniProt P24530); test: competitive radioligand binding assay, ETB (h) (agonist radioligand)
[10] = molecular target: BLT1 (LTB4) (h) (Homo sapiens, UniProt Q15722); test: competitive radioligand binding assay, BLT1 (LTB4) (h) (agonist radioligand)
[11] = molecular target: CysLT1 (LTD4) (h) (Homo sapiens, UniProt Q9Y271); test: competitive radioligand binding assay, CysLT1 (LTD4) (h) (agonist radioligand)
[12] = molecular target: NK1 (h) (Homo sapiens, UniProt P25103); test: competitive radioligand binding assay, NK1 (h) (agonist radioligand)
[13] = system: opioid (non-selective); test: competitive radioligand binding assay, opioid (non-selective) (antagonist radioligand); details: 10 μM
[14] = molecular target: PPARγ (h) (Homo sapiens, UniProt P37231); test: competitive radioligand binding assay, PPARγ (h) (agonist radioligand)
[15] = molecular target: IP (PGI2) (h) (Homo sapiens, UniProt P43119); test: competitive radioligand binding assay, IP (PGI2) (h) (agonist radioligand)
[16] = system: P2Y; test: competitive radioligand binding assay, P2Y (agonist radioligand); details: 10 μM
[17] = system: 5-HT (non-selective); test: competitive radioligand binding assay, 5-HT (non-selective) (agonist radioligand); details: 10 μM
[18] = system: sigma (non-selective) (h); test: competitive radioligand binding assay, sigma (non-selective) (h) (agonist radioligand); set-up: species or system human; details: 10 μM
[19] = molecular target: PR (h) (Homo sapiens, UniProt P06401); test: competitive radioligand binding assay, PR (h) (agonist radioligand)
[20] = molecular target: V2 (h) (Homo sapiens, UniProt P30518); test: competitive radioligand binding assay, V2 (h) (agonist radioligand)
[21] = system: SKCa channel; test: competitive radioligand binding assay, SKCa channel (antagonist radioligand); details: 10 μM
[22] = system: Cl− channel (GABA-gated); test: competitive radioligand binding assay, Cl− channel (GABA-gated) (antagonist radioligand); details: 10 μM
[23] = molecular target: norepinephrine transporter (h) (Homo sapiens, UniProt P23975); test: competitive radioligand binding assay, norepinephrine transporter (h) (antagonist radioligand)
[24] = molecular target: dopamine transporter (h) (Homo sapiens, UniProt Q01959); test: competitive radioligand binding assay, dopamine transporter (h) (antagonist radioligand)
[25] = molecular target: choline transporter (CHT1) (h) (Homo sapiens, UniProt Q9GZV3); test: competitive radioligand binding assay, choline transporter (CHT1) (h) (antagonist radioligand)
[26] = molecular target: 5-HT transporter (h) (Homo sapiens, UniProt P31645); test: competitive radioligand binding assay, 5-HT transporter (h) (antagonist radioligand)
[27] = molecular target: T1, rat AR ligand-binding domain (Rattus norvegicus, UniProt P15207); test: Competitive-binding assay vs AR ligand Fluormone (PolarScreen Androgen Receptor Competitor Assay, fluorescence polarization)
T1 construct: purchased Invitrogen PV4293
Description: Binding to rat AR ligand-binding domain was measured in competition with fluorescently labeled AR ligand Fluormone™ using a commercial assay kit and fluorescence polarization as a read-out.
FIG. 3. Competitive-binding assay vs AR ligand Fluormone™ (PolarScreen™ Androgen Receptor Competitor Assay, Invitrogen, cat. #PV4293).

[28] = system: CYP 3A; test: CYP 3A induction assay; format: in vitro ADME
[29] = Maximum tolerated dose, peroral once a day for 5 days in CD1 male mice; format: in vivo
Description: The maximum tolerated doses (MTD) of novel antagonists (R)-1 and their analog Ia were determined in experiments on CD1 male mice at peroral administration once a day for 5 days in doses of 10, 30, and 100 mg/kg. The compound was dissolved in sterile water with addition of Tween 80. Sterile water with Tween 80 was given to control animals (Placebo group). Animals' body weight and mortality rate were estimated. Statistical comparison of groups was carried out according to a non-parametric ANOVA test using Statistica software.

[30] = system: LnCAP-Z2 tumors; test: Prostate cancer xenograft model, SCID male mice bearing LnCAP-Z2 tumors; format: in vivo; details: for antitumor efficacy (in words): oral
Description: SCID male mice bearing LnCAP-Z2 tumors (mean volume˜160-190 mm^3) were treated daily by oral gavage with vehicle or drugs for 21 days. Individual tumor volume change by the end of the study. Percentage of change in individual tumor volumes as compared to the start of treatment.
FIG. 6. […] SCID male mice bearing LnCAP-Z2 tumors (mean volume˜160-190 mm^3) treated daily by oral gavage with vehicle or drugs for 21 days. Individual tumor volume change by the end of the study. Percentage of change in individual tumor volumes compared to the start of treatment.
FIG. 7. […] SCID male mice bearing LnCAP-Z2 tumors (mean volume˜160-190 mm^3) treated daily by oral gavage with vehicle or drugs for 21 days. (A)—Tumor weight by the end of the study. Mean±SEM are presented. […] (B)—PSA expression by the end of the study. Plasma samples were collected 24 hours after the last drug administration. Mean±SEM are presented.
The antitumor efficacy of (R)-1 was tested in a xenograft model of prostate cancer (FIGS. 6 and 7). Male immunodeficient mice harboring LnCAP-Z2 tumors were treated orally for 21 days with either vehicle or (R)-1 at 20 and 50 mg/kg once daily and at 20 mg/kg twice daily. […] Twenty-four hours after last treatment, blood samples were collected from all animals and used for measuring PSA expression and drug concentration. In addition, the concentration of drugs and Ki67 expression were measured in tumor samples.

T1 sequence (P15207 651-882 limits assumed): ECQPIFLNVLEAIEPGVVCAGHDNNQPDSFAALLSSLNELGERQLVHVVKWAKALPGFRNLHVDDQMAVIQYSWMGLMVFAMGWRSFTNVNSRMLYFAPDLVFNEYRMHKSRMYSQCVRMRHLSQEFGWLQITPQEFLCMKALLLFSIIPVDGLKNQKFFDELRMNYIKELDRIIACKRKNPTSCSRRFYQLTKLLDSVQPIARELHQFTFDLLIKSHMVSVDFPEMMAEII
NK1 (h), sequence (P25103 whole entry): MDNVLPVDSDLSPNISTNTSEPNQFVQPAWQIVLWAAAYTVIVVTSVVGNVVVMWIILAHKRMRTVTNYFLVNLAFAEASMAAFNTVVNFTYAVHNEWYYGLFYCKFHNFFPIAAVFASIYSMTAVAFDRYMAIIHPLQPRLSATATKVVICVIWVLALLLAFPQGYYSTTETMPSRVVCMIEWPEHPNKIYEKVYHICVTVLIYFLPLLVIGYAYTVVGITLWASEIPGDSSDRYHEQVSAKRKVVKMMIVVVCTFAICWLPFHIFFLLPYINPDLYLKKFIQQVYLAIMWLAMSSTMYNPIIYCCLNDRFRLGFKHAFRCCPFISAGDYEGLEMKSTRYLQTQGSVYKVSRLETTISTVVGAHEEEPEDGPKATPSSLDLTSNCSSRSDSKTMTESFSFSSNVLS
A3 (h), sequence (P0DMS8 whole entry): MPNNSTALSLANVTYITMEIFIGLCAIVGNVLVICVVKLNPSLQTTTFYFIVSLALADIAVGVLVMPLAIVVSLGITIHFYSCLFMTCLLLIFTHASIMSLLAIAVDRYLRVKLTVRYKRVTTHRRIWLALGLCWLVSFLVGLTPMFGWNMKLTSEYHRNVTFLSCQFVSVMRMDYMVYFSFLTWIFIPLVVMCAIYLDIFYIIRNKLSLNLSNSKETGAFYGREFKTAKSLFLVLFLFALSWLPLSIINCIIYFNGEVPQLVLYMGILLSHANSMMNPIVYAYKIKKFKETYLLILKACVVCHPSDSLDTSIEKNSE
A1 (h), sequence (P30542 whole entry): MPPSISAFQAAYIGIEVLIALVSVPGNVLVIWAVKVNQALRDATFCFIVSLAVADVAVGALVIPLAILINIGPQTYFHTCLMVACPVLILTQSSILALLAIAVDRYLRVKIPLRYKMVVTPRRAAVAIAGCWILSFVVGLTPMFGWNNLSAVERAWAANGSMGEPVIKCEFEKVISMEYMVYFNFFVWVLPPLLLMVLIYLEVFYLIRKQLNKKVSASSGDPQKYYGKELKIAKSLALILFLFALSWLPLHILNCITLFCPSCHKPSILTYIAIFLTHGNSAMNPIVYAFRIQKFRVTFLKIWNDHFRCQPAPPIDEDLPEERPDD
V2 (h), sequence (P30518 whole entry): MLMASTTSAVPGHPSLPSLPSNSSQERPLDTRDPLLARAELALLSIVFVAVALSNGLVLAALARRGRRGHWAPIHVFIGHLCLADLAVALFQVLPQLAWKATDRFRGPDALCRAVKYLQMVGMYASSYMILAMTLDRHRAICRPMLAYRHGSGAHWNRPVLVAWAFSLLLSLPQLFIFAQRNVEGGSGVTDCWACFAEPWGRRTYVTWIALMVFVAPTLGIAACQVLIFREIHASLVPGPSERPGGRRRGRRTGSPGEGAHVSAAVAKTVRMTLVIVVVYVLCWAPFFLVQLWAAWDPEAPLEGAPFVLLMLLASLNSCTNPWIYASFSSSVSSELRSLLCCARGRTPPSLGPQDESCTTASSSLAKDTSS
PR (h), sequence (P06401 whole entry): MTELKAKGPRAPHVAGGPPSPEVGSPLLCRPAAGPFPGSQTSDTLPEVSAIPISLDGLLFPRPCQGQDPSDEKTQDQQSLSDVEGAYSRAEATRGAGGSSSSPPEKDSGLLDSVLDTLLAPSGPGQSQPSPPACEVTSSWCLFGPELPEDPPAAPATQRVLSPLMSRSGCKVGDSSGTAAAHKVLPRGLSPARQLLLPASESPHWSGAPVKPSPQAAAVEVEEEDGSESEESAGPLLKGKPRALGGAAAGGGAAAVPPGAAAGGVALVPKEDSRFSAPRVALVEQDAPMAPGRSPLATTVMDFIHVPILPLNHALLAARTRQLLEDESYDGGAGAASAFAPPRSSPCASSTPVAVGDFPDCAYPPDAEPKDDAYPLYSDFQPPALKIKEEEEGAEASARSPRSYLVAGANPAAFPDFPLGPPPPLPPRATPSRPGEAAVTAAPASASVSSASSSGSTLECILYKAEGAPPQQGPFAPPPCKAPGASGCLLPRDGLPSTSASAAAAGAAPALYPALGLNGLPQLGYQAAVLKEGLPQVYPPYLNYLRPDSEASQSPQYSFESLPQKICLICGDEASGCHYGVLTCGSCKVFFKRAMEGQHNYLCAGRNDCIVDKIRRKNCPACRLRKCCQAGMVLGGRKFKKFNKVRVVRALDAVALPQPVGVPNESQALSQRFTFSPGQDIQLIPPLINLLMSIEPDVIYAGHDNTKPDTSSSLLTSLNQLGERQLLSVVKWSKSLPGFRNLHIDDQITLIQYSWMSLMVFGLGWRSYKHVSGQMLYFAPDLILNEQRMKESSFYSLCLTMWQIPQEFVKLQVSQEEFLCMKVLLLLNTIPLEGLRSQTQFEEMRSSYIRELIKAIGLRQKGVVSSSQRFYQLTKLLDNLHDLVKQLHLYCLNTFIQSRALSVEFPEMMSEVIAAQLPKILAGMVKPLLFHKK
IP (PGI2) (h), sequence (P43119 whole entry): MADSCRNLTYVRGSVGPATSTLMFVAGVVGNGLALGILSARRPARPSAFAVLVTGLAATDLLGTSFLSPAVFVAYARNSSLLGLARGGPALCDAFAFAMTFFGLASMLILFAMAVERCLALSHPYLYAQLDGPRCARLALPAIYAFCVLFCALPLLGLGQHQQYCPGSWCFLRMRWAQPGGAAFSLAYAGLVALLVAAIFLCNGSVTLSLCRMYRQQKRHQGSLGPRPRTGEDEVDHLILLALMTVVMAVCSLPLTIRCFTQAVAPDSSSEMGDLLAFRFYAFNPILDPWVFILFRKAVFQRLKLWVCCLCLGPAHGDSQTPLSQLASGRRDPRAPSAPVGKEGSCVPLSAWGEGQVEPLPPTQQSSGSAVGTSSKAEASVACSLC
CCK2 (CCKB) (h), sequence (P32239 whole entry): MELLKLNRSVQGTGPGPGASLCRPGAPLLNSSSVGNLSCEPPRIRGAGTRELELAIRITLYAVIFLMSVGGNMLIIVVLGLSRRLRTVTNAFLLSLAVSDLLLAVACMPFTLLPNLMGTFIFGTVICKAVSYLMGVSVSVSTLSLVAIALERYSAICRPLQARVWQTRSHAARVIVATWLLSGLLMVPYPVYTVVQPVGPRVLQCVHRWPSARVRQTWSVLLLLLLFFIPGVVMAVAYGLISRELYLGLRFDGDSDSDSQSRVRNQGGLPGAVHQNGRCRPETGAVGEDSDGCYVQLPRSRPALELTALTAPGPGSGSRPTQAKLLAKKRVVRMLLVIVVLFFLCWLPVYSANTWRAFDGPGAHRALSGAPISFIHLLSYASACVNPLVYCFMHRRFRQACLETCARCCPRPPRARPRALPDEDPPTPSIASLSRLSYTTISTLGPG
norepinephrine transporter (h), sequence (P23975 whole entry): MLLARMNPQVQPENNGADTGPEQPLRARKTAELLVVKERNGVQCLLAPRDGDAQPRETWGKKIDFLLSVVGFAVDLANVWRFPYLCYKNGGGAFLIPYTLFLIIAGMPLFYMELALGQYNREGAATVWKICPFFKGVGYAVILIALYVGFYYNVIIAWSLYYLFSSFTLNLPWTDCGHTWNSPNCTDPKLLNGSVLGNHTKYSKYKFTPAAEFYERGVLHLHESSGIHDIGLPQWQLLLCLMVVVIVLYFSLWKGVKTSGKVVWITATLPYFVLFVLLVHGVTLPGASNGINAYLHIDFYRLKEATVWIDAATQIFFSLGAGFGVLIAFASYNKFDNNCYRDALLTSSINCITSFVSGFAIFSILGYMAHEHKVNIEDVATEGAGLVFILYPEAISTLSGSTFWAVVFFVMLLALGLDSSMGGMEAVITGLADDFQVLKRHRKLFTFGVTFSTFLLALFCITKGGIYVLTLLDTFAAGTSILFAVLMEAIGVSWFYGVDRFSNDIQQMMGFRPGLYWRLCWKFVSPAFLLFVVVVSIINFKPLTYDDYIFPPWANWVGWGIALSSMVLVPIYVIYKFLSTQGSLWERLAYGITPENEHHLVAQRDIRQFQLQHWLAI
5-HT transporter (h), sequence (P31645 whole entry, the tested form may be a part): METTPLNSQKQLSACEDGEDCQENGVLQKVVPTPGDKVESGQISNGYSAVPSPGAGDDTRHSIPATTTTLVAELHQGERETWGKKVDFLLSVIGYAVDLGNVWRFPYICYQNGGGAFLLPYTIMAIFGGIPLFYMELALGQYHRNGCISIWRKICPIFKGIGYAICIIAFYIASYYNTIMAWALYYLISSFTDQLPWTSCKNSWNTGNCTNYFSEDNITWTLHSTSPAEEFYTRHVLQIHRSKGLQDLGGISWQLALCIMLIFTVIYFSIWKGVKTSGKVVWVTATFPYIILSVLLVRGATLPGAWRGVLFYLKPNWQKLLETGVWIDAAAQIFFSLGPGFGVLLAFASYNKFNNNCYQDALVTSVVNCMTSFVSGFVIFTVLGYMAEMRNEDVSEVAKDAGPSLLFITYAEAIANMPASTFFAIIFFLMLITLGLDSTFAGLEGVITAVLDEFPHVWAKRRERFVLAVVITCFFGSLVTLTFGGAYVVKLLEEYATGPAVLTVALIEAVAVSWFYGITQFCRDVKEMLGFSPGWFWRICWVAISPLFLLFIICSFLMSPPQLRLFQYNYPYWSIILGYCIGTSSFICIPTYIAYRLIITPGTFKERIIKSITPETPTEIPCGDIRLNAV

With CNC(=O)c1ccc(N2C(=S)N(c3ccc(C#N)c(C(F)(F)F)c3)C(=O)[C@]23CCOC3)cc1F [(R)-1, 4-[(R)-3-(4-cyano-3-trifluoromethyl-phenyl)-4-oxo-2-thioxo-7-oxa-1,3-diaza-spiro[4.4]non-1-yl]-2-fluoro-N-methyl-benzamide] the inhibition at 10 µM [1] was -11.8%, the inhibition at 10 µM [2] was -4.9% and the “% Inhibition” value [3] was 0.7%. For the same molecule, the “% Inhibition” value [4] was −3.7%, the inhibition at 10 µM [5] was -8% and the inhibition at 10 µM [6] was -4.5%. The inhibition at 10 µM [7] was 9.1%, the inhibition at 10 µM [8] was -2.5% and the inhibition at 10 µM [9] was -1.7%. For the same molecule, the inhibition at 10 µM [10] was 15.9%, the inhibition at 10 µM [11] was -13.9% and the inhibition at 10 µM [12] was 14.7%. The “% Inhibition” value [13] was 19.3%, the inhibition at 10 µM [14] was -19.2% and the inhibition at 10 µM [15] was -7.3%. For the same molecule, the “% Inhibition” value [16] was 33.3%, the “% Inhibition” value [17] was −8.2% and the “% Inhibition” value [18] was 9.8%. For the same molecule, the inhibition at 10 µM [19] was 66.6%, the inhibition at 10 µM [20] was 1.5% and the “% Inhibition” value [21] was −4.8%. The “% Inhibition” value [22] was 42.4%, the inhibition at 10 µM [23] was -1.1% and the inhibition at 10 µM [24] was -0.3%. It also gave an inhibition at 10 µM [25] of 9.7%, an inhibition at 10 µM [26] of 43.5% and an IC50 ([27]; rat AR ligand-binding domain, fluorescence polarization (FIG. 3)) of 7.9 µM. The “fold more efficient binding than Ia” value ([27]; versus Ia) was “around 2.1 fold”, the “Positive control, % (CYP 3A induction)” value ([28]; Concentration 1 μM) was 0.0 ± 2.0% and the “Positive control, % (CYP 3A induction)” value ([28]; Concentration 10 μM) was 42.0 ± 6.1%. For the same molecule, the MTD at 5 days ([29]; CD1, mouse, in vivo, oral, male CD-1 mice, peroral once a day for 5 days) was greater than 100 mg/kg, the “body weight versus control animals (Placebo group)” value ([29]; CD1 male mice, peroral, 100 mg/kg) was “no statistical significance was observed” and the mortality ([29]; CD1 male mice, peroral, doses below 100 mg/kg (10 and 30 mg/kg)) was “did not lead to death”. The “toxicity compared with the (Ia) antagonist” value ([29]; male CD-1 mice, from MTD) was “more than three times less toxic”, the tumors regressed ([30]; 20 mg/kg twice daily, oral gavage, 21 days) was 4 of 8 and the “effect on individual tumors (in words)” value ([30]; analysis of individual tumors, 21 days oral) was “stimulate tumor regression”. The “antitumor efficacy (in words)” value ([30]; once daily at 20 or 50 mg/kg, 21 days) was “comparable with Ia administered once daily at 10 mg/kg” and the “antitumor efficacy (in words)” value ([30]; twice daily at 20 mg/kg, 21 days) was “highest antitumor efficacy”.
